# Measured values reported in patent US11970496B1, “Pyrrolo[3,2-c]quinoline compounds as CK2 inhibitors” (KING FAISAL UNIVERSITY, priority 2023, dated 2024).
# Tests used:
# MCF7 (breast) = assay: In vitro cytotoxic activity assay (MTT), MCF7; type: cell-based; settings: Homo sapiens; MCF7 cells, exposed for 96 hours; read-out: IC50, 50% inhibition of cell proliferation, MCF7 (breast)
# Protocol: (§1) Compounds 1-12 were screened for their in vitro cytotoxic activity utilizing a 3-(4,5-dimethyl-thiazol-2-yl)-2,5-diphenyltetrazolium bromide (MTT) assay against selected cancer human cell lines consisting of PC3 (prostate), HCT116 (colon), A375 (melanoma), H1299 (lung), MIAPaCa-2 (pancreas), HL60 (leukemia), MCF7 (breast), MDA-MB-231 (breast) (T. Mosmann, J. Immunol. Meth., 1983, 65, 55-63). The cells were cultured at 37° C. in RMPI1640 medium supplemented with 10% fetal bovine serum, 50 IU/mL penicillin, and 50 μg/mL streptomycin in a 5% CO2 incubator. All cells were sub-cultured 3 times/week by trypsinisation. Viable cells were seeded and allowed to adhere for 12 h before a test drug was added in 96-well plates at an initial density of 1.0×10^5 cells/mL. Tumour cell lines were separately exposed to various concentrations of the tested compounds followed by incubation at a temperature of 37° C. during 96 h inside a medium of fresh RMPI 1640. Cells were subsequently incubated at 37° C. using MTT at 0.5 mg/mL during 4 h. After removal of supernatant, formazan crystals were dissolved in isopropanol and the optical density was measured at 570 nm. CX-4945 was used as a positive control.
# H1299 (lung) = assay: In vitro cytotoxic activity assay (MTT), H1299; type: cell-based; settings: Homo sapiens, NCI-H1299; H1299 cells, exposed for 96 hours; read-out: IC50, 50% inhibition of cell proliferation, H1299 (lung)
# Protocol: as §1
# [1] = molecular target: T1, recombinant human CK2 (RRββ-holoenzyme) (Homo sapiens, UniProt P68400); assay: CK2 Kinase Assay (33P-ATP, substrate peptide RRRDDDSDDD); type: biochemical; settings: final ATP concentration 15 μM, 10 min at 30° C.; read-out: protein kinase CK2 IC50
# T1 construct: purchased Millipore
# Protocol: CK2 Kinase Assay was conducted using the protocol as described in Pierre F. et al; J. Med. Chem. 2011, 54, 635-654. The tested compounds in aqueous solution were added at a volume of 10 μL to a reaction mixture comprising 10 μL of assay dilution buffer (ADB; 20 mM MOPS, pH 7.2, 25 mM (3-glycerol phosphate, 5 mM EGTA, 1 mM sodium orthovanadate, and 1 mM dithiothreitol), 10 μL of substrate peptide (RRRDDDSDDD, dissolved in ADB at a concentration of 1 mM), 10 μL of recombinant human CK2 (RRββ-holoenzyme, 25 ng dissolved in ADB; Millipore). Reactions were initiated by the addition of 10 μL of ATP solution (90% 75 mMMgCl2, 75 μM ATP (final ATP concentration: 15 μM) dissolved in ADB; 10% [γ-33P] ATP (stock 1 mCi/100 μL; 3000 Ci/mmol (Perkin-Elmer) and maintained for 10 min at 30° C. The reactions were quenched with 100 μL of 0.75% phosphoric acid and then transferred to and filtered through a phosphor cellulose filter plate (Millipore). After washing each well five times with 0.75% phosphoric acid, the plate was dried under vacuum for 5 min and, following the addition of 15 μL of scintillation fluid to each well, the residual radioactivity was measured using a Wallac […]. The IC50 values were derived from eight concentrations of test inhibitors.
# MDA-MB-231 (breast) = assay: In vitro cytotoxic activity assay (MTT), MDA-MB-231; type: cell-based; settings: Homo sapiens; MDA-MB-231 cells, exposed for 96 hours; read-out: IC50, 50% inhibition of cell proliferation, MDA-MB-231 (breast)
# Protocol: as §1
# A375 (melanoma) = assay: In vitro cytotoxic activity assay (MTT), A375; type: cell-based; settings: Homo sapiens, A-375; A375 cells, exposed for 96 hours; read-out: IC50, 50% inhibition of cell proliferation, A375 (melanoma)
# Protocol: as §1
# PC3 (prostate) = assay: In vitro cytotoxic activity assay (MTT), PC3; type: cell-based; settings: Homo sapiens, PC-3; PC3 cells, exposed for 96 hours; read-out: IC50, 50% inhibition of cell proliferation, PC3 (prostate)
# Protocol: as §1
# HL60 (leukemia) = assay: In vitro cytotoxic activity assay (MTT), HL60; type: cell-based; settings: Homo sapiens, HL-60; HL60 cells, exposed for 96 hours; read-out: IC50, 50% inhibition of cell proliferation, HL60 (leukemia)
# Protocol: as §1
# MIAPaCa-2 (pancreas) = assay: In vitro cytotoxic activity assay (MTT), MIAPaCa-2; type: cell-based; settings: Homo sapiens, MIA PaCa-2; MIAPaCa-2 cells, exposed for 96 hours; read-out: IC50, 50% inhibition of cell proliferation, MIAPaCa-2 (pancreas)
# Protocol: as §1
# HCT116 (colon) = assay: In vitro cytotoxic activity assay (MTT), HCT116; type: cell-based; settings: Homo sapiens, HCT-116; HCT116 cells, exposed for 96 hours; read-out: IC50, 50% inhibition of cell proliferation, HCT116 (colon)
# Protocol: as §1
# T1 sequence (P68400 whole entry): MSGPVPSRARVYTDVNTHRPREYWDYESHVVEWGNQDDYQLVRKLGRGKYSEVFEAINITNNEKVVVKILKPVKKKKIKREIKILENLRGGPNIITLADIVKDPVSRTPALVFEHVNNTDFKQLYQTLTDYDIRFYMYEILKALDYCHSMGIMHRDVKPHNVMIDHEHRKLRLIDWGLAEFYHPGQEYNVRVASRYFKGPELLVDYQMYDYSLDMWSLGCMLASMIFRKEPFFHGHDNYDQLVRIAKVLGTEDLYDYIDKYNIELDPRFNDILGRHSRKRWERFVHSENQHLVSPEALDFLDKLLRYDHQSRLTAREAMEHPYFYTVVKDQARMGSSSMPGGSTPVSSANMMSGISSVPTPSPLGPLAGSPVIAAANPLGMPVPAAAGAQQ
# T1 sequence (P67870 whole entry partner): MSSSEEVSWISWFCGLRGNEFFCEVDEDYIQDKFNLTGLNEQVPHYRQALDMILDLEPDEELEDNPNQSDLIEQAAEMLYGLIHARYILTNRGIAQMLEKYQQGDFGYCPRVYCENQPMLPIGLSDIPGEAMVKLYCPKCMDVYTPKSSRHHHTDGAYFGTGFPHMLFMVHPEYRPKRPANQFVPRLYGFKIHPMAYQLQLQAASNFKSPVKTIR
compound,measurement,setting,value
"O=C(O)c1ccc2c(c1)nc(Nc1cccc(Cl)c1)c1cc(C(=O)O)[nH]c12 [Compound 1, 4-((3-chlorophenyl)amino)-1H-pyrrolo[3,2-c]quinoline-2,7-dicarboxylic acid]",IC50,MCF7 (breast),4400 nM
same,IC50,H1299 (lung),1600 nM
same,IC50,[1],37 nM
same,IC50,MDA-MB-231 (breast),3500 nM
same,IC50,A375 (melanoma),2200 nM
same,IC50,PC3 (prostate),1800 nM
same,IC50,HL60 (leukemia),2900 nM
same,IC50,MIAPaCa-2 (pancreas),1300 nM
same,IC50,HCT116 (colon),1900 nM
